Laboratory results published in patent publication US20110118288A1, “PHARMACEUTICAL COMPOSITION FOR TREATING HYPERTENSION AND METABOLIC SYNDROME AND USE THEREOF” (priority 2008, published 2011).

Key:
[1] = system: spontaneously hypertensive rats; assay: Cardiac hypertrophy (left ventricular weight/body weight) in spontaneously hypertensive rats; type: in vivo, rat; conditions: SHR, after ten weeks of intragastric administration once every day
Procedure: Each group was given intragastric administration once every day for ten weeks. During the experiment, the diet, survival status and behaviors of the animals were recorded, and the animals were weighed once every day and the doses of administration were adjusted according to the body weights. Animals were sacrificed after ten weeks, and their hearts were taken out to determine the weights of left ventricles and calculate left ventricular indexes. After being sacrificed with 10% potassium chloride (2 mmol/L, 1 ml/rat), the rats were weighed. Heart was taken out and aortas and connective tissues outside of the heart were removed. The heart was cleaned by washing, dried with a filter paper, and weighed. The left ventricular was weighed after the atria were removed, and a ratio of left ventricular weight to body weight was calculated.

[2] = system: spontaneously hypertensive rats; assay: Urinary microalbumin (bromophenol blue absorbance) in spontaneously hypertensive rats; type: in vivo, rat; conditions: SHR, high sugar and high fat diets, intragastric once every day, twelve-hour overnight urine; time point not given in table
Procedure: Model control group: intragastric administration of same volume of physiological saline; […] L group: 5 mg/(kg·d) of losartan; R group: 1 mg/(kg·d) of rosuvastatin group; L+R group: 5 mg/(kg·d) of losartan+1 mg/(kg·d) of rosuvastatin calcium; P+R group: 1.5 mg/(kg·d) of pioglitazone+1 mg/(kg·d) of rosuvastatin calcium; L+P group: 5 mg/(kg·d) of losartan+1.5 mg/(kg·d) of pioglitazone; […] Each group was given intragastric administration once every day and fed with high sugar and high fat diets for six months. During the experiment, the diet, survival status and behaviors of the animals were recorded, and the animals were weighed once every day and the doses of administration were adjusted according to the body weights. 1. 10% (v/v) glacial acetic acid solution (pH 2.8). 2. 0.303 mol/L glycine-glacial acetic acid buffer solution (pH 3.0): 22.72 g of glycine was weighed and diluted with 10% glacial acetic acid solution to 1000 ml, to which 100 mg of NaN3 was added. The buffer solution can be kept for one year at room temperature after sealed. 3. Bromophenol blue (1.924 mmol/L) stock solution: 257.36 mg of BPB was precisely weighed and dissolved to 200 ml with absolute ethanol. The stock solution can be kept for one year in a refrigerator at 4° C. 4. Bromophenol blue (0.231 mmol/L) developing agent: to 60 ml of BPB stock solution, 2.5 ml Triton X-100 was added, and then diluted to 500 ml with glycine-glacial acetic acid buffer solution. The developing agent can be kept for one year at room temperature after sealed. Collection and detection of samples: rats were taken out and fed in a metabolic cage at the fourth week, the eighth week, the twelfth week and the sixteenth week, respectively, and twelve-hour overnight urinary collection was performed. Urinary amounts were precisely recorded. 4 ml of urine was sampled, treated with sodium azide, and centrifuged at 2000 r/min for 10 min.

[3] = system: metabolic syndrome patients; assay: Treatment of patients suffered from metabolic syndrome (FBG, FINS, HbAlC, TC/HDLC, Fg); type: in vivo, human
Excerpt: Sixth-four metabolic syndrome patients were selected from those received treatment in Linyi People's Hospital from March 2007 to June 2008, and randomly divided into a control group and an experimental group. Control group: twenty-one males and eleven females, whose ages were between 61 and 72 and whose body mass indexes (BMI) were between 26 and 30; Experimental group: nineteen males and thirteen females, whose ages were between 62 and 70 and whose body mass indexes (BMI) were between 25.5 and 31; Before the treatment, all patients were subjected to blood lipids (including total cholesterol (TC), high-density lipid cholesterol (HDLC)) analysis, and detection of glycated hemoglobin (HbAlC), fasting blood glucose (FBG), fasting insulin (FINS) and fibrinogen (Fg). […] After eight weeks of continuous treatment, all of the above parameters were re-determined, in which blood glucose was determined with hexokinase method, blood lipid was determined with esterase method, fibrinogen was determined with coagulation method and chromogenic substrate assay, HbAlC was determined with chromatography, and fasting insulin was determined with chemiluminescence immunoassay. Statistical analysis: SPSS software was employed, and test of significance was performed by using a paired sample t test.

[4] = system: spontaneously hypertensive rats; assay: Carotid intima-media thickness in spontaneously hypertensive rats; type: in vivo, rat; conditions: SHR carotid artery, high sugar and high fat diets, intragastric once every day for six months
Procedure: Each group was given intragastric administration once every day and fed with high sugar and high fat diets for six months. During the experiment, the diet, survival status and behaviors of the animals were recorded, and the animals were weighed once every day and the doses of administration were adjusted according to the body weights. After the animal was anesthetized and fixed, Even's blue (60 mg/kg) dye was injected via a femoral artery. After 30 minutes, myocardial perfusion was performed with 0.9% physiological saline as a perfusate at a perfusion pressure of 13.3 kPa until the effluent became clear. Then, 4% paraformaldehyde in physiological saline was perfused for 10 minutes for in situ fixation (the perfusion pressure was the same as above). The section of Even's blue-stained carotid artery was taken and further fixed with formalin solution, and three parts, i.e. the front, the middle and the rear parts, respectively, were sampled and embedded in paraffin, and then sliced discontinuously to obtain 8 to 10 layers, which were stained with HE. Three vascular sections were randomly selected and input into a computer image processing system so as to perform a computerized image measurement, thereby calculating the intima-media thickness.

[5] = system: spontaneously hypertensive rats; assay: Tail arterial blood pressure of conscious spontaneously hypertensive rats; type: in vivo, rat; conditions: for blood pressure, after treatment, eighth week / blood pressure, after treatment, fifth week / blood pressure, after treatment, first week / blood pressure, after treatment, third week: SHR, intragastric once every day, 2-5 h after administration; for blood pressure, before treatment: spontaneously hypertensive rats, baseline before treatment, n = 11
Procedure: Model control group: intragastric administration of same volume of physiological saline; P group: 0.5 mg/(kg·d) of pioglitazone; L group: 5 mg/(kg·d) of losartan; R group: 0.5 mg/(kg·d) of rosuvastatin calcium; L+R group: 5 mg/(kg·d) of losartan+0.5 mg/(kg·d) of rosuvastatin calcium; P+R group: 0.5 mg/(kg·d) of pioglitazone+0.5 mg/(kg·d) of rosuvastatin calcium; L+P group: 5 mg/(kg·d) of losartan+0.5 mg/(kg·d) of pioglitazone; […] Each group was given intragastric administration once every day for ten weeks. During the experiment, the diet, survival status and behaviors of the animals were recorded, and the animals were weighed once every day and the doses of administration were adjusted according to the body weights. Animals were sacrificed after ten weeks, and their hearts were taken out to determine the weights of left ventricles and calculate left ventricular indexes. Temperature was controlled between 18° C. and 22° C., humidity was controlled between 45% and 65%, and indoor natural light was used. Tail arterial blood pressure of a conscious rat was measured with Intelligent Non-invasive Blood Pressure Monitor BP-2006A (provided by Beijing Softron Co., Ltd.). Blood pressures were measured five times between two and five hours after intragastric administration in the first week, the third week, the fifth week and the eighth week, respectively. The average value of the blood pressures was used as the blood pressure of the sample.

[6] = once every day, after eight weeks

| SMILES | Left ventricular weight [1] | Left ventricular weight/body weight (×10^-3) [1] | urinary microalbumin, Absorbance A (600 nm) [2] | FBG, before treatment ([3]; before treatment) | FINS, before treatment ([3]; before treatment) | Fg, before treatment ([3]; before treatment) | HbAlC, before treatment ([3]; before treatment) | TC/HDLC, before treatment ([3]; before treatment) | FBG, after treatment [3, 6] | FINS, after treatment [3, 6] | Fg, after treatment [3, 6] | HbAlC, after treatment [3, 6] | TC/HDLC, after treatment [3, 6] | Maximum intima thickness [4] | Ratio of intima to media thickness [4] | blood pressure, after treatment, eighth week [5] | blood pressure, after treatment, fifth week [5] | blood pressure, after treatment, first week [5] | blood pressure, after treatment, third week [5] | blood pressure, before treatment [5] |
| --- | --- | --- | --- | --- | --- | --- | --- | --- | --- | --- | --- | --- | --- | --- | --- | --- | --- | --- | --- | --- |
| CCc1ccc(CCOc2ccc(CC3SC(=O)NC3=O)cc2)nc1 (stereo not shown) [P group, pioglitazone] | 0.986 g | 3.30 ×10^-3 | 0.5714 | 7.11 mmol/L | 31.5 mlU/L | 426.3 mg/dL | 6.92% | 4.25 | 6.69 mmol/L | 24.36 mlU/L | 390.8 mg/dL | 6.33% | 3.84 | 0.0958 mm | 1.8325 | 172 mmHg | 171 mmHg | 172 mmHg | 168 mmHg | 172 mmHg |
| CC(C)c1nc(N(C)S(C)(=O)=O)nc(-c2ccc(F)cc2)c1/C=C/[C@@H](O)C[C@@H](O)CC(=O)O [R group, rosuvastatin calcium] | 0.960 g | 3.16 ×10^-3 | 0.5672 |  |  |  |  |  |  |  |  |  |  | 0.1153 mm | 2.0754 | 169 mmHg | 170 mmHg | 166 mmHg | 168 mmHg | 168 mmHg |
| CCCCc1nc(Cl)c(CO)n1Cc1ccc(-c2ccccc2-c2nn[nH]n2)cc1 [L group, losartan] | 0.873 g | 2.90 ×10^-3 | 0.6132 |  |  |  |  |  |  |  |  |  |  | 0.0926 mm | 1.8055 | 156 mmHg | 155 mmHg | 168 mmHg | 162 mmHg | 171 mmHg |
